Laboratory results as given in patent US7619076B2, “Synthetic compounds useful as nodulation agents of leguminous plants and preparation processes thereof” (Bayer Cropscience S.A., priority 2003, dated 2009).
Entries after “also recorded” stand apart in the source; their conditions may differ.

What was measured:
[1] = system: alfalfa; test: Nodulation tests on alfalfa (induction of the formation of root nodules); format: in vivo; conditions: alfalfa plantlets; for nodulation activity relative to the benzamide derivative 3: FIG. 2-4
Description: The sulfated products are tested on alfalfa for induction of the formation of root nodules, and on the model legume Medicago truncatula for induction of the expression of a symbiotic gene coding for an early nodulin. Alfalfa plantlets are grown under axenic conditions in test tubes on a nitrogen-poor agar medium (Demont-Caulet et al., Plant Physiol., 120, 83-92, 1999). Untreated plantlets serve as control. Natural Nod or synthetic LCO factors are added at the concentrations indicated.

[2] = system: MtENOD11::GUSA; test: Induction of early nodulin ENOD11 transcription, MtENOD11::GUSA reporter, wild-type Jemalong plants; format: in vivo, Medicago truncatula; conditions: 6 hours LCO treatment, X-Gluc blue roots counted, FIG. 5
Description: (§1) These tests are performed to determine whether the synthetic LCOs induce symbiotic responses by activation on the same signal transduction pathway as the natural Nod factors. The tests are performed on the model legume Medicago truncatula. […] The compound that serves as reference is the sulfated tetramer 12 acylated with C16:2Δ2E,9Z chain, which is an analog of the natural Nod factor. The control is the plant cultivated in the absence of LCO.
(§2) A new gene of Medicago truncatula, MtENOD11, coding for an RPRP (Repetitive proline-rich protein), and transcribed during the first steps of infection of nodulation on the nodule roots and tissues was identified (Journet et al. Mol. Plant-Microbe Interact., 14, 737-748, 2001). Using the transgenic Medicago truncatula plant expressing the fusion MtENOD11::GUSA, it is possible to determine whether a Nod factor analog added to the culture medium of the plant has induced transcription of the ENOD11 gene.
(§3) For the ENOD11 transcription tests, a Fahraeus medium is used as for the modulation tests, but without agar. The seedlings are placed on paper in pockets containing the culture medium. […] The number of roots giving a characteristic blue response is then counted.

[3] = system: MtENOD11::GUS in plant bearing a mutation in the DMI1 gene; test: Induction of early nodulin ENOD11 transcription, MtENOD11::GUS reporter, plants bearing a mutation in the DMI1 gene; format: in vivo, Medicago truncatula; conditions: DMI1 mutant plants, 6 hours LCO treatment, X-Gluc
Description: as §1, §2, §3

[4] = system: Lotus corniculatus; test: Root hair deformation assay on Lotus corniculatus; format: in vivo; parameters: key to Root hair deformation (Had) response: The responses were classified “+” when the proportion of Had+ was significantly higher (at the probability level P=0.05) among the treated plants compared with the untreated control; conditions: for Root hair deformation (Had) response: 15 plants, 16 hr incubation
Description: Seeds of Lotus corniculatus (cv Rodeo) were sterilized. Germinated seeds with rootlets about 1 cm long were aseptically transferred onto Farhaeus soft agar plates. Plates were sealed with Parafilm and placed vertically for two days in a plant growth chamber (at 25° C., with a 16-hr light period, a relative humidity of 75%, OsramVFluora L 77 as the type of light, and light intensity at the level of the top of the plates of 30 μE.m-2.s-1) to allow plant growth and root hair development. Then 2 ml of a Nod factor derivative sterile solution was poured to cover the Lotus root system, and after 30 mm, excess liquid was removed. A further incubation was performed for 16 hr in the plant growth chamber. The roots of the five plants were transferred between slide and cover slip and observed by bright field microscopy after staining by methylene blue.
Hair deformation (Had) activity was estimated by a limit dilution method. Nod factor derivatives were applied at concentrations ranging from 10^-7 M to 10-11 M. The activity of two DP5 chitin derivatives were compared, the soybean Nod factor and its benzoylated analog 10. Both compounds were O-fucosylated at the reducing end, but differed by the N-substitution on the terminal non-reducing glucosamine residue, either C18:1 N-acylated like the soybean Nod factor or N-benzoylated. Each compound was dissolved in water/ethanol 50/50; 0,01% Chaps was added at a concentration of 1 mM. These stock solutions were then diluted in water. […] The statistical significance (at the P=0.05) of the proportion of <<+>> responses was calculated using the ratio comparisons based on the Fisher's <<Exact>> test (SAS software). Experiments were carried out twice.
Fifteen plants were used for each treatment and each dilution. Sixty six untreated control plants were used to estimate the intrinsic plant variability for the Hair deformation character. […] Data were analysed using the Fisher's “Exact” test.

CCCCCC/C=C\CCCOc1cccc(C(=O)N[C@H]2[C@H](O[C@H]3[C@H](O)[C@@H](NC(C)=O)[C@H](O[C@H]4[C@H](O)[C@@H](NC(C)=O)[C@H](O[C@H]5[C@H](O)[C@@H](NC(C)=O)C(O)O[C@@H]5COS(=O)(=O)[O-])O[C@@H]4CO)O[C@@H]3CO)O[C@H](CO)[C@@H](O)[C@@H]2O)c1.[Na+] (stereo partly drawn) [compound 3, 2-acetamido-4-O-{2-acetamido-4-O-[2-acetamido-2-deoxy-4-O-(2-deoxy-2-(N-3-(undec-4Z-enyloxy)benzoyl)amino-β-D-glucopyranosyl)-β-D-glucopyranosyl]-2-deoxy-β-D-glucopyranosyl}-2-deoxy-6-O-sulfo-D-glucopyranose, sodium salt]
nodulation activity on alfalfa ([1]; axenic, nitrogen-poor agar medium, result in words, sodium salt): advantageous activity; also recorded: most active synthetic compound
nodulation activity relative to the sulfated tetramer 11 acylated with the reference C16:1Δ9Z chain ([1]; FIG. 1): similar
ENOD11 transcription, times less active than the reference compound, the acylated tetramer 12 [2]: approximately 10 times
ENOD11::GUS response in plants bearing the DMI1 mutation [3]: does not induce any response

CCCCCC/C=C\CCCOc1cccc(CN[C@H]2[C@H](O[C@H]3[C@H](O)[C@@H](NC(C)=O)[C@H](O[C@H]4[C@H](O)[C@@H](NC(C)=O)[C@H](O[C@H]5[C@H](O)[C@@H](NC(C)=O)C(O)O[C@@H]5COS(=O)(=O)[O-])O[C@@H]4CO)O[C@@H]3CO)O[C@H](CO)[C@@H](O)[C@@H]2O)c1.[Na+] (stereo partly drawn) [compound 4, 2-acetamido 4-O-{2-acetamido-4-O-[2-acetamido-2-deoxy-4-O-(2-deoxy-2-(N-3-(undec-4Z-enyloxy)benzyl)amino-β-D-glucopyranosyl)-β-D-glucopyranosyl]-2-deoxy-β-D-glucopyranosyl}-2-deoxy-6-O-sulfo-D-glucopyranose, sodium salt]
nodulation activity relative to the benzamide derivative 3 [1]: moderate activity

CCCCCC/C=C\CCCOc1cccc(CN(C(C)=O)[C@H]2[C@H](O[C@H]3[C@H](O)[C@@H](NC(C)=O)[C@H](O[C@H]4[C@H](O)[C@@H](NC(C)=O)[C@H](O[C@H]5[C@H](O)[C@@H](NC(C)=O)C(O)O[C@@H]5COS(=O)(=O)[O-])O[C@@H]4CO)O[C@@H]3CO)O[C@H](CO)[C@@H](O)[C@@H]2O)c1.[Na+] (stereo partly drawn) [compound 5, 2-acetamido-4-O-{2-acetamido-4-O-[2-acetamido-2-deoxy-4-O-(2-deoxy-2-(N-3-(undec-4Z-enyloxy)benzyl)acetamido-β-D-glucopyranosyl)-β-D-glucopyranosyl]-2-deoxy-β-D-glucopyranosyl}-2-deoxy-6-O-sulfo-D-glucopyranose, sodium salt]
nodulation activity relative to the benzamide derivative 3 [1]: lower

CCCCCCC#CCCCOc1cccc(C(=O)N[C@H]2[C@H](O[C@H]3[C@H](O)[C@@H](NC(C)=O)[C@H](O[C@H]4[C@H](O)[C@@H](NC(C)=O)[C@H](O[C@H]5[C@H](O)[C@@H](NC(C)=O)C(O)O[C@@H]5COS(=O)(=O)[O-])O[C@@H]4CO)O[C@@H]3CO)O[C@H](CO)[C@@H](O)[C@@H]2O)c1.[Na+] (stereo partly drawn) [compound 7, 2-acetamido-4-O-{2-acetamido-4-O-[2-acetamido-2-deoxy-4-O-(2-deoxy-2-(N-3-(undec-4Z-ynyloxy)benzoyl)amino-β-D-glucopyranosyl)-β-D-glucopyranosyl]-2-deoxy-β-D-glucopyranosyl}-2-deoxy-6-O-sulfo-D-glucopyranose, sodium salt]
nodulation activity relative to the benzamide derivative 3 [1]: comparable

CCCCCC/C=C\CCCOc1cccc(C(=O)NC2C(O)[C@H](O)C(CO)O[C@H]2O[C@@H]2C(CO)O[C@@H](O[C@@H]3C(CO)O[C@@H](O[C@@H]4C(CO)O[C@@H](O[C@@H]5C(CO[C@@H]6OC(C)[C@@H](O)C(O)C6O)OC(O)C(NC(C)=O)C5O)C(NC(C)=O)C4O)C(NC(C)=O)C3O)C(NC(C)=O)C2O)c1 (stereo partly drawn) [compound 10, 2-acetamido-4-O-[2-acetamido-4-O-{2-acetamido-4-O-[2-acetamido-2-deoxy-4-O-(2-deoxy-2-(N-3-(undec-4Z-enyloxy)benzoyl)amino-β-D-glucopyranosyl)-β-D-glucopyranosy]-2-deoxy-β-D-glucopyranosyl}-2-deoxy-β-D-glucopyranosyl]-2-deoxy-6-O-(-α-L-fucopyranosyl)-D-glucopyranose]
Root hair deformation (Had) response ([4]; 10^−7 M): +
Root hair deformation (Had) response ([4]; 10^−8 M): +
Root hair deformation (Had) response ([4]; 10^−9 M): +
concentration at which activity is significant in the root hair bioassay ([4]; limit dilution method): nanomolar
activity on the Lotus corniculatus root hair bioassay ([4]; result in words): high activity
